According to patent US8816089B2, “Methods for controlling SR protein phosphorylation, and antiviral agents whose active ingredients comprise agents that control SR protein activity” (priority 2003, dated 2014):

Columns and labels:
[1] = tested on: SARS virus (FFM-1); type: cell-based; conditions: Vero cells, 40 μM, 48 hours
[2] = tested on: Cytomegalovirus; conditions: HFL1 cells, 20 or 40 μM, seven days after infection
[3] = tested on: Chinese hamster CHL cells; assay: Chromosomal screening test for mutagenicity in mammalian cells; conditions: positive control, 500 μg/ml, short treatment, +S9 mix
[4] = tested on: HIV; assay: HIV infection experiment in MT-4 cells, HIVp24 by Lumipulse ELISA; conditions: MT-4 cells, 5, 10, or 20 μM, supernatant after 48 hours
[5] = tested on: SRPK1 or SRPK2; assay: Inhibition of SRPK1 or SRPK2 phosphorylation activity by SRPIN-1 analogs (FIG. 5A); type: biochemical; conditions: 10 μM in DMSO, 30° C., 20 minutes
Protocol: FIG. 5A: Evaluation of the SRPK-inhibiting activities of SRPIN-1 and analogs thereof.
The same procedure as described in Example 4B was used to determine whether SRPIN-1 analogs had the activity of inhibiting the phosphorylation activity of SRPK1 and SRPK2. Each SRPIN-1 analog (10 μM; in DMSO) was incubated with 1 μg of purified recombinant SRPK1 or SRPK2 protein, which was expressed in E. coli, in a reaction buffer (400 μM HEPES (pH 7.5), 100 μM MgCl2, 200 μM ATP, […] [γ-^32P] ATP, and 1 mg/ml RS peptide (SEQ ID NO: 5)) in a 30° C. water bath for 20 minutes.
After RS peptide was incubated with SRPK1 or SRPK2 for 20 minutes, the reaction solution was dropped onto P81 phosphocellulose membrane (P81; Whatman) and the membrane was washed three times for ten minutes with 5% phosphoric acid solution. After washing, ^32P radioactivity on the P81 membrane was determined using a liquid scintillation counter.

| Compound | effect in suppressing HIV replication (HIVp24) [4] | inhibitory effect on the phosphorylation activity of SRPK1 and/or SRPK2 [5] | further results |
| --- | --- | --- | --- |
| O=C(Nc1ccccc1N1CCCCC1)c1ccncc1 [Compound No. 349, N-[2-(1-piperidinyl)phenyl]isonicotinamide] | – | – | SARS virus propagation (plaque assay) [1]: significantly suppressed SARS virus propagation; morphological changes and cell death caused by cytomegalovirus infection [2]: suppressed the abnormal morphological changes and cell death caused by cytomegalovirus infection |
| CN(C)N=O [DMN, dimethylnitrosamine, reference compound] | – | – | frequency of occurrence of cells with chromosomal abnormalities [3]: 52.0%; frequency of occurrence of cells with chromosomal abnormalities (number of cells) ([3]; 50 metaphasic cells): 26 cells |
| O=C(Nc1cc(Cl)ccc1N1CCCCC1)c1ccncc1 [compound 341, N-[5-chloro-2-(1-piperidinyl)phenyl]isonicotinamide] | strong effects in suppressing HIV propagation | – | – |
| Cc1ccc(N2CCCCC2)c(NC(=O)c2ccncc2)c1 [compound 342, N-[5-methyl-2-(1-piperidinyl)phenyl]isonicotinamide] | strong effects in suppressing HIV propagation | – | – |
| O=C(Nc1cc(C(F)(F)F)ccc1N1CCCCC1)c1cccnc1 [compound 343, N-[2-(1-piperidinyl)-5-(trifluoromethyl)phenyl]nicotinamide] | strong effects in suppressing HIV propagation | – | – |
| O=C(Nc1cc(C(F)(F)F)ccc1N1CCCCC1)c1ccc([N+](=O)[O-])cc1 [compound 345, N-[2-(1-piperidinyl)-5-(trifluoromethyl)phenyl]-4-nitrobenzamide] | strong effects in suppressing HIV propagation | – | – |
| CCN(CC)c1ccc(C(F)(F)F)cc1NC(=O)c1ccncc1 [compound 347, N-[2-diethylamino-5-(trifluoromethyl)phenyl]isonicotinamide] | strong effects in suppressing HIV propagation | – | – |
| O=C(Nc1cc(F)ccc1N1CCCCC1)c1ccncc1 [compound 348, N-[5-fluoro-2-(1-piperidinyl)phenyl]isonicotinamide] | strong effects in suppressing HIV propagation | – | – |
| O=C(Nc1cccc(C(F)(F)F)c1)c1ccncc1 [compound 608, N-[3-(trifluoromethyl)phenyl]isonicotinamide] | strong effects in suppressing HIV propagation | – | – |
| O=C(Nc1cc(C(F)(F)F)ccc1Br)c1ccncc1 [compound 612, N-[2-bromo-5-(trifluoromethyl)phenyl]isonicotinamide] | – | strong inhibitory effect | – |
| C[C@H]1CCCCN1c1ccc(C(F)(F)F)cc1NC(=O)c1ccncc1 [compound 613, (S)—N-[2-(2-methyl-1-piperidinyl)-5-(trifluoromethyl)phenyl]isonicotinamide] | strong effects in suppressing HIV propagation | strong inhibitory effect | – |
| COc1ccc(C(=O)Nc2cc(C(F)(F)F)ccc2N2CCCCC2)cc1 [compound 615, N-[2-(1-piperidinyl)-5-(trifluoromethyl)phenyl]-4-methoxybenzamide] | strong effects in suppressing HIV propagation | strong inhibitory effect | – |
| FC(F)(F)c1ccc(N2CCCCC2)c(NC(=S)c2ccncc2)c1 [compound 616, N-[2-(1-piperidinyl)-5-(trifluoromethyl)phenyl]isonicotinthioamide] | strong effects in suppressing HIV propagation | – | – |
| O=C(Nc1cc(C(F)(F)F)ccc1N1CCCCCC1)c1ccncc1 [compound 618, N-[2-(1-hexahydro-1H-azepinyl)-5-(trifluoromethyl)phenyl]isonicotinamide] | strong effects in suppressing HIV propagation | strong inhibitory effect | – |
| O=C(Nc1cc(C(F)(F)F)ccc1N1CCc2ccccc21)c1ccncc1 [compound 619, N-[2-(1-indolinyl)-5-(trifluoromethyl)phenyl]isonicotinamide] | strong effects in suppressing HIV propagation | strong inhibitory effect | – |
| O=C(Nc1cc(C(F)(F)F)ccc1N1Cc2ccccc2C1)c1ccncc1 [compound 620, N-[2-(2-isoindolinyl)-5-(trifluoromethyl)phenyl]isonicotinamide] | strong effects in suppressing HIV propagation | – | – |
| O=C(Nc1cc(C(F)(F)F)ccc1N1CCc2ccccc2C1)c1ccncc1 [compound 621, N-[2-(1,2,3,4-tetrahydroisoquinolin-2-yl)-5-(trifluoromethyl)phenyl]isonicotinamide] | – | strong inhibitory effect | – |
| Cc1ccc(S(=O)(=O)Nc2cc(C(F)(F)F)ccc2N2CCCCC2)cc1 [compound 622, N-[2-(1-piperidinyl)-5-(trifluoromethyl)phenyl]-p-toluenesulfonamide] | strong effects in suppressing HIV propagation | – | – |
| O=C(NC(=S)Nc1ccc(I)cc1Cl)c1cccnc1 [compound 623] | strong effects in suppressing HIV propagation | – | – |
| O=C(NC(=S)Nc1cc(C(F)(F)F)ccc1N1CCCCC1)c1cccnc1 [compound 624, 1-nicotinoyl-3-[2-(1-piperidinyl)-5-(trifluoromethyl)phenyl]thiourea] | strong effects in suppressing HIV propagation | strong inhibitory effect | – |
| O=C(NC(=S)Nc1cccc(C(F)(F)F)c1)c1cccnc1 [compound 625] | strong effects in suppressing HIV propagation | strong inhibitory effect | – |
| O=C(NC(=S)Nc1ccccc1)c1cccnc1 [compound 626] | strong effects in suppressing HIV propagation | – | – |
